From patent publication US8962633B2, “Methods of treatment and prevention of metabolic bone diseases and disorders” (Thomas Jefferson University, priority 2007, dated 2015)

Key:
[1] = test system: diabetic/hypercholesterolemic pig model (DM/HC); assay: Histochemical staining (H&E-AB) of bone marrow in DM/HC pigs; format: in vivo; conditions: treated vs non-treated DM/HC pigs
Protocol: (§1) Animal model: A diabetic/diabetic hypercholestrolemic pig model (DM/HC) was developed that mimics human-like atherosclerosis. Domestic Yorkshire boars weighing 25-30 kg and aged ˜4 months were castrated and made diabetic with a single intravenous injection of 125 mg/kg of streptozotocin (Sicor Pharmaceuticals, Irvine, Calif.). After stabilized for 1-2 weeks, the animals with elevated levels of plasma glucose (>150 mg/dl) were fed with atherogenic (high-fat) diet as shown in Table 1 (Animal Specialties, Quakertown, Pa.) to achieve a cholesterol level of approximately 250-800 mg/dl.
(§2) At one month after stabilization of choleresterol at 250-800 mg/dl, the animals were randomized into two experimental groups, DM/HC (hyperglycemia and hypercholesterolemia) group with no treatment and treatment group (10 mg/kg/day of SB-480848, also referred to as 1-(N-(2-(diethylamino)ethyl)-N-(4-(4-trifluoromethylphenyl)benzyl)-aminocarbonylmethyl)-2-(4-fluorobenzyl)thio-5,6-trimethylenepyrimidin-4-one). The animals were sacrificed at 6-month after the randomization. The animal protocol has been approved by the Institutional Animal Care and Use Committee of University of Pennsylvania.
(§3) Daily dosing began on Day 29, at which time each test animal was given a daily dose of 10 mg/kg SB-480848 (given as bolus equivalent in dog food). Animals were NPO from midnight the night before. […]

[2] = Body weight and general observation of DM/HC pigs during the study; format: in vivo, pig
Protocol: as §1, §2, §3

[3] = test system: diabetic/hypercholesterolemic pig model (DM/HC); assay: MicroCT analysis of trabecular bone (medial femoral condyle) in the DM/HC pig model; format: in vivo; conditions: for SMI (structural model index) / Tb.Th (trabecular thickness): 10 mg/kg/day
Protocol: Animal model: A diabetic/diabetic hypercholestrolemic pig model (DM/HC) was developed that mimics human-like atherosclerosis. Domestic Yorkshire boars weighing 25-30 kg and aged ˜4 months were castrated and made diabetic with a single intravenous injection of 125 mg/kg of streptozotocin (Sicor Pharmaceuticals, Irvine, Calif.). […] The animals were sacrificed at 6-month after the randomization. The animal protocol has been approved by the Institutional Animal Care and Use Committee of University of Pennsylvania. Daily dosing began on Day 29, at which time each test animal was given a daily dose of 10 mg/kg SB-480848 (given as bolus equivalent in dog food). Animals were NPO from midnight the night before. Animals were euthanized on Day 196 and tissues harvested immediately. Tissue sampling: The right knee joint was removed and dissected. The femoral bone was split in half in parallel to the long axis of the bone. A piece of bone including both the articular surface and growth plate region (˜15-20 mm) was sliced off from the front and parallel to the femoral shaft (FIG. 1). The tissues were fixed in 4% paraformaldehyde and scanned within one week in a μCT scanner (μCT-40, Scanco Corp.) with a voxel resolution of 20 μm. MicroCT Analysis—Micro CT analysis generates 3 dimensional data including bone density and indices of micro-architecture. From the central region, i.e., between the articular surface (top) and the growth plate (bottom), 250 slices (˜[…]) were analyzed. To avoid artifact, the measurements were contoured away from the regions directly below the articular surface and the cutting edges. Paraformaldehyde fixed tissues (2×2 cm) were analyzed using microCT 40 (Scanco Medical, Bassersdorf, Switzerland) and a 3D reconstruction of the images slices was generated. The tissues were scanned at a medium resolution with slice thickness and slice increments of 20 μm. […] Scanning was performed at an energy setting of 70000 (V) and an intensity of 114 (μA) with an integration time of 200 ms. All values for tissue volume (mm3), bone volume (mm3), bone volume/tissue volume, and mean/density (mg HA/ccm) were also calculated and recorded. […] The image density was measured with the Distance3D tool of the μCT Evaluation Program V5.0.

[4] = test system: diabetic/hypercholesterolemic pig model (DM/HC); assay: TUNEL assay of trabecular bone in DM/HC pigs; format: in vivo; conditions: treated vs non-treated DM/HC pigs, n=4 per group
Protocol: as §1, §2
Daily dosing began on Day 29, at which time each test animal was given a daily dose of 10 mg/kg SB-480848 (given as bolus equivalent in dog food). […]
TUNEL Assay. Apoptosis was measured by the TUNEL assay. […]

[5] = test system: MLO-A5 osteoblastic cells; assay: Alkaline phosphatase staining (osteoblast differentiation) of MLO-A5 cells; format: cell-based, mice; conditions: vs control
Protocol: (§4) Alkaline Phosphatase and Alizarin Red Staining. Alizarin Red and Alkaline Phosphatase Staining are bone marker proteins indicating the degree of mineralization and intensity of osteblast differentiation, respectively. MLO-A5 osteoblastic cells (isolated from 14-day-old osteocalcin promoter-driven T-antigen transgenic mice, J Bone Miner Res 12:2014-2023, 1997) were cultured on Collagen1 coated plates at density 15000 cells/well in 12-well TC plates. After 24 hours, the cells were treated w/10 mM β-GP and LysoPC at 5 μM concentration for 3 and 7 days. Treatment was repeated every other day. At each time point alizarin red and alkaline phosphatase staining was performed. Alkaline phosphatase Detection Kit (Chemicon, Intl., Temecula, Calif., SCR004) was used for detection and performed as per manufactures instructions. To visualize mineralization the cells were washed once with a 2% Alizarin Red S solution for 5-10 min. at room temperature followed by one wash with water, two washes with PBS and fixation with paraformaldehyde. The results were then imaged with a digital cooled CCD camera.

[6] = test system: MLO-A5 osteoblastic cells; assay: Alizarin Red staining (mineralization) of MLO-A5 cells; format: cell-based, mice; conditions: 5 μM LysoPC, 7 days, vs non-treated control cells
Protocol: as §4

MLO-A5 cells = assay: CyQUANT cell proliferation assay in MLO-A5 cells; format: cell-based, mice; conditions: 5 μM LysoPC, 18 hours, vs non-treated cells
Protocol: Cell Proliferation. MLO-A5 cells were plated in 48-well TC dishes at a density of 5,000 cells/well and allowed to attach (5-6 hrs.). The cells were treated with 5 uM of Lyso PC for 18 hrs followed by analysis with the CyQUANT Cell Proliferation Assay Kit (Molecular Probes) following manufacturers instructions to measure MLO-A5 proliferation.

[7] = DM/HC pigs, 10 mg/kg/day SB-480848, sacrificed Day 196
[8] = DM/HC pigs, 10 mg/kg/day SB-480848, sacrificed Day 196, listed as Lp-PLA2 inhibitor

Row | Compound | trabecular bone marrow morphology / homeostasis ([1]; H&E-AB staining, trabecular bone areas) | bone marrow remote from trabecular bone [1] | weight ([2]; treated DM/HC pigs at end of study, baseline 26.9 kg, control animals 50.9 kg) [kg] | responsiveness and activity of the animals ([2]; treated vs control DM/HC pigs, observation) | osteoporotic changes (BV/TV, BS/BV) ([3]; DM/HC pigs treated with inhibitor, in words) | BS/BV (bone surface over bone volume) [3, 7] | BV/TV (bone volume over total volume) [3, 7] | Conn-Dens (connectivity density) [3, 7] | Tb.N (trabecular number) [3, 7] | Tb.Sp (trabecular separation) [3, 7] | SMI (structural model index) [3, 7] | Tb.Th (trabecular thickness) [3, 7] | SMI (structural model index) [3, 8] | Tb.Th (trabecular thickness) [3, 8] | changes in Tb.Sp, TbN and ConnD ([3]; control vs DM/HC vs treated DM/HC animals, in words) | death of osteocytes and osteoblasts (TUNEL positive cells) [4] | alkaline phosphatase staining ([5]; 5 μM LysoPC, 7 day treatment) | alkaline phosphatase staining ([5]; at least 5 μM LysoPC (5 and 20 μM), 7 days) | mineralization (Alizarin Red staining) [6] | proliferation (MLO-A5 cells)
1 | CCN(CC)CCN(Cc1ccc(-c2ccc(C(F)(F)F)cc2)cc1)C(=O)Cn1c(SCc2ccc(F)cc2)nc(=O)c2c1CCC2 [SB480848, 1-(N-(2-(diethylamino)ethyl)-N-(4-(4-trifluoromethylphenyl)benzyl)-aminocarbonylmethyl)-2-(4-fluorobenzyl)thio-5,6-trimethylenepyrimidin-4-one] | preserved bone marrow homeostasis | prevented DM/HC-induced bone marrow abnormalities | 62.5 | more responsive to external stimuli | no osteoporotic changes | 24.40 ± 0.51 | 0.25 ± 0.01 | 35.69 ± 1.22 | 2.78 ± 0.06 | 0.33 ± 0.007 | 0.65 ± 0.10 | 0.10 ± 0.002 | degenerative changes were minimized | reduced Tb.Th thickness was prevented | no significant changes | reduced death of osteocytes and osteoblasts |  |  |  | 
2 | lyso-phosphatidylcholine [LysoPC] |  |  |  |  |  |  |  |  |  |  |  |  |  |  |  |  | decreased alkaline phosphatase staining | reduced alkaline phosphatase staining | decreased mineralization | reduced proliferation
